Measurements from patent US9999622B2, “Pyrazolothiazole compound and medicine comprising same” (NIPPON SHINYAKU CO., LTD., priority 2014, dated 2018).

Columns and labels:
Format in all cases: biochemical
JAK2 = target: T1, JAK2 (Homo sapiens, UniProt O60674); experiment: JAK tyrosine kinase inhibitory activity in the presence of 1 mM ATP (ELISA), JAK2
T1 construct: purchased Carna Biosciences, Inc
Method: (§1) 1. Preparation of Test Compound
(§2) The test compound was dissolved in dimethyl sulfoxide (DMSO) to 10 mM and further diluted with DMSO to the concentrations of 1000, 100, 10, 1, 0.1 and 0.01 μM, respectively. For JAK1, these solutions of the test compound at the six concentrations 10 mM, 1000 μM, 100 μM, 10 μM, 1 μM and 0.1 μM were used. For JAK2 and JAK3, these solutions of the test compound at the six concentrations 1000 μM, 100 μM, 10 μM, 1 μM, 0.1 μM and 0.01 μM were used. The test compound solutions were diluted further to 20-fold with an assay buffer to obtain a sample solution. 15 mM Tris-HCl (pH7.5), 0.01 (v/v) % Tween-20 and 1 mM dithiothreitol were used as an assay buffer. DMSO was diluted to 20-fold with the assay buffer and was used as a negative control.
(§3) 2. JAK Tyrosine Kinase Inhibitory Activity in the Presence of 1 mM Atp
(§4) The activity was determined by ELISA method. Each of the sample solutions was added to a streptavidine coated 96-well plate (DELFIA Strip Plate 8×12 well, PerkinElmer) at 10 μL/well (n=2). […] Finally, JAK tyrosine kinase (Carna Biosciences, Inc.), which was previously diluted with the assay buffer to 7.5 nM for JAK1 and 0.75 nM for JAK2 and JAK3, was added to the plate at 20 μL/well, and the plate was incubated at 30° C. for 1 h. The plate was washed four times with buffer (50 mM Tris-HCl (pH 7.5), 150 mM NaCl, 0.02 (v/v) % Tween-20). A blocking buffer (0.1% Bovine Serum Albumin, 50 mM Tris-HCl (pH 7.5), 150 mM NaCl, 0.02 (v/v) % Tween-20) was added to the plate at 150 μL/well and the plate was blocked at 30° C. for 1 h. The blocking buffer was removed, and a horse radish peroxidase-labeled anti-phosphorylated tyrosine antibody (BD Biosciences, Inc.) (diluted to 10000-fold with the blocking buffer) was added to the plate at 100 μL/well, and the plate was incubated at 30° C. for 30 min. The plate was washed with the washing buffer four times, and 3,3′,5,5′-tetramethylbenizidine solution (Nacalai Tesque) was added to the plate at 100 μL/well to develop the color for 10 minutes. To the plate was added 0.1 M sulfuric acid at 100 μL/well to stop the reaction. The absorbance at 450 nm was measured using a microplate reader (BIO-RAD).
(§5) 3. Analysis of the Results

JAK1 = target: T2, JAK1 (Homo sapiens, UniProt P23458); experiment: JAK tyrosine kinase inhibitory activity in the presence of 1 mM ATP (ELISA), JAK1
T2 construct: purchased Carna Biosciences, Inc
Method: as §1, §2, §3, §4, §5

JAK3 = target: T3, JAK3 (Homo sapiens, UniProt P52333); experiment: JAK tyrosine kinase inhibitory activity in the presence of 1 mM ATP (ELISA), JAK3
T3 construct: purchased Carna Biosciences, Inc
T3 sequence (P52333 1-1124): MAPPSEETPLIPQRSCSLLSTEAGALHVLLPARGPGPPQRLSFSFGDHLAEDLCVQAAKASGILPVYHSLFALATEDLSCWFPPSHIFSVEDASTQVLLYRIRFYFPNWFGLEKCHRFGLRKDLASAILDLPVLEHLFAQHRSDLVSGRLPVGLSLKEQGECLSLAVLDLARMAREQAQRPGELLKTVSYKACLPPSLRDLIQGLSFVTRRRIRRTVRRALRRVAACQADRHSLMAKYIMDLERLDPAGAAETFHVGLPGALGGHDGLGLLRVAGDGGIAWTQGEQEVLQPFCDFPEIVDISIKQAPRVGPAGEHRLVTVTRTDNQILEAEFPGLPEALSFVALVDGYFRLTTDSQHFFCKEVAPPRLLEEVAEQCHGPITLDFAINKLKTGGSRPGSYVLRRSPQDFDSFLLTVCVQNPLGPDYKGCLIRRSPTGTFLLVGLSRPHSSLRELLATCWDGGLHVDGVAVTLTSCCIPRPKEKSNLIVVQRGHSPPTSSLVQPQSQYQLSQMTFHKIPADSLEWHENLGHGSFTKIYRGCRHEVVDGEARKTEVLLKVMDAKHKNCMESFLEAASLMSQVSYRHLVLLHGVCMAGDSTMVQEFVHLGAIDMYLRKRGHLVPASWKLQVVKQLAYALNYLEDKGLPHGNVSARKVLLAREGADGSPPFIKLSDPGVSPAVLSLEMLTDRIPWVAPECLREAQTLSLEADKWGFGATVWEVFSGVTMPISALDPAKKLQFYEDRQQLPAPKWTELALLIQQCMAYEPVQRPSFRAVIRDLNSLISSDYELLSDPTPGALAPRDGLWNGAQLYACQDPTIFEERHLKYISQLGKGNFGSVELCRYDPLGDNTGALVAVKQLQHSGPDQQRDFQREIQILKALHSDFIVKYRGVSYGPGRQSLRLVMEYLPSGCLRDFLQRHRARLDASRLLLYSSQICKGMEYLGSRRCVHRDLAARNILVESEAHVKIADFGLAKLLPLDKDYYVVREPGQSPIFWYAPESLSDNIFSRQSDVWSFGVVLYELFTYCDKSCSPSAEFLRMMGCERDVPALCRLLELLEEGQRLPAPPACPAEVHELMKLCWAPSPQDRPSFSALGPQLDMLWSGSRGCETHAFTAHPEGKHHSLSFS
Method: as §1, §2, §3, §4, §5

T1 sequence (O60674 whole entry): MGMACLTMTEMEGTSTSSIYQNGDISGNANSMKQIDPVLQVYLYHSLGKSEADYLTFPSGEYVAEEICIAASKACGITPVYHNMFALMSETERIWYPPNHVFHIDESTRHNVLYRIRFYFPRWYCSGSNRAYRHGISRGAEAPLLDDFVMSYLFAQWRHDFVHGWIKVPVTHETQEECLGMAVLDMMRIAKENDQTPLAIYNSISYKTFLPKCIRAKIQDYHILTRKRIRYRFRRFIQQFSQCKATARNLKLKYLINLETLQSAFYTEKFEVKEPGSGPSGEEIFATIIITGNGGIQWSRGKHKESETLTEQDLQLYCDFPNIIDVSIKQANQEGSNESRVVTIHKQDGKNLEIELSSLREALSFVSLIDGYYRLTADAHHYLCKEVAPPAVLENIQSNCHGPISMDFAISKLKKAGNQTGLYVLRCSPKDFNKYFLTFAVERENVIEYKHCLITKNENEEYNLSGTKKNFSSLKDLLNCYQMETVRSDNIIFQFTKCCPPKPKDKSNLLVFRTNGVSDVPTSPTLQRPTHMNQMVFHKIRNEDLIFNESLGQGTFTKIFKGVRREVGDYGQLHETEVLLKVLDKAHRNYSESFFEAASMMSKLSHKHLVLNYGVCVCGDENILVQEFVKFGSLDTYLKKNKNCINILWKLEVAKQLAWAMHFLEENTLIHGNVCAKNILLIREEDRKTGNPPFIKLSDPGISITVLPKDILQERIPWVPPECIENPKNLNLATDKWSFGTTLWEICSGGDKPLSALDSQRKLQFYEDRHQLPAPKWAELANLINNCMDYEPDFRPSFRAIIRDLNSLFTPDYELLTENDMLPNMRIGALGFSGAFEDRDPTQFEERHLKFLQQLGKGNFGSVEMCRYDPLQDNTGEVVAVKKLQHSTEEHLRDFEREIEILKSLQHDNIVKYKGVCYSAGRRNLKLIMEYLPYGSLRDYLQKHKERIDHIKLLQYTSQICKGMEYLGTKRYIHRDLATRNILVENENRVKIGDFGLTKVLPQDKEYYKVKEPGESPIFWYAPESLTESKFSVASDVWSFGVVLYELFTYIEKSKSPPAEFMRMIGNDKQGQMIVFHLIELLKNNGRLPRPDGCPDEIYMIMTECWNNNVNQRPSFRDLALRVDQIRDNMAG
T2 sequence (P23458 whole entry): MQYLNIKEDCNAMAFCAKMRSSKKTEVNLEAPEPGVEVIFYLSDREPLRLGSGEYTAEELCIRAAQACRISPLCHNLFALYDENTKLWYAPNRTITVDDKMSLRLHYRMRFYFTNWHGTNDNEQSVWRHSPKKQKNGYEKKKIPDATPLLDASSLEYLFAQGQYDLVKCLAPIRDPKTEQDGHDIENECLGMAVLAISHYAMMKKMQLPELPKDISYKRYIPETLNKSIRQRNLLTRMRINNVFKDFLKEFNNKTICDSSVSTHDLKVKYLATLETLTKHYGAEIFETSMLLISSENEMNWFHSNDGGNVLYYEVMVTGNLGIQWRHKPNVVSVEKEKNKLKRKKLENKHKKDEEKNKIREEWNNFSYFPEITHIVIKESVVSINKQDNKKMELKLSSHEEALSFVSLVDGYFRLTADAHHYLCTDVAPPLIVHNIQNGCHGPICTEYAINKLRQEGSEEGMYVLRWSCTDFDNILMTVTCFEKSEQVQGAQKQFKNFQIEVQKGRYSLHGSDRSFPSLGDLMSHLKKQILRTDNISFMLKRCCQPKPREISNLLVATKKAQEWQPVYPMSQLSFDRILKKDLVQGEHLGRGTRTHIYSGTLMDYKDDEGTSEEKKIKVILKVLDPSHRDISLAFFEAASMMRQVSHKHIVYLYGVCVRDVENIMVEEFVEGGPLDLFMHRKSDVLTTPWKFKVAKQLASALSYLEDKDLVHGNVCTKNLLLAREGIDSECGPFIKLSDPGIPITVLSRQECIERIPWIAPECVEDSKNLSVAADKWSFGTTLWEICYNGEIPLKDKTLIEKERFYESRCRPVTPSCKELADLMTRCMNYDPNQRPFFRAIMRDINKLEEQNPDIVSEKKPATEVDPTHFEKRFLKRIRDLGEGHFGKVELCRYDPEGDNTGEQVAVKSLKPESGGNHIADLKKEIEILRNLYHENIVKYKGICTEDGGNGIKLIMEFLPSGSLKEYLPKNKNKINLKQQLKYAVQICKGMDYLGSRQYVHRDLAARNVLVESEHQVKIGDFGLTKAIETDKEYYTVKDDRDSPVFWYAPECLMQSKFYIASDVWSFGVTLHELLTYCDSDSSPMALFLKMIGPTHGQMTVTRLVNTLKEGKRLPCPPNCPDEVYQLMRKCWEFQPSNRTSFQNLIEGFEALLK

Row | SMILES | IC50 (JAK2) [nM] | IC50 (JAK1) [nM] | IC50 (JAK3) [nM]
1 | COc1ccc([C@@H](C)Nc2cc(C(=O)N3CCC(O)CC3)nc(-c3cnn4ccsc34)n2)cc1 [Example 56, (4-Hydroxypiperidin-1-yl) [6-{[(1R)-1-(4-methoxyphenyl)ethyl]amino}-2-(pyrazolo[5,1-b][1,3]thiazol-7-yl)pyrimidin-4-yl]methanone] | 7300 | 940 | > 10000
2 | C[C@H](Nc1cc(C(=O)N2CCC(NC(=O)c3ccncc3)CC2)nc(-c2cnn3ccsc23)n1)C1CC1 [Example 187, N-1-[6-[(1S)-1-cyclopropylethyl]amino-2-(pyrazolo[5,1-b][1,3]thiazol-7-yl)pyrimidine-4-carbonyl]piperidin-4-ylpyridine-4-carboxamide] | 2100 | 68 | 1800
3 | COC(=O)NC1CCN(C(=O)c2cc(NCCC3CC3)nc(-c3cnn4ccsc34)n2)CC1 [Example 163, Methyl (1-6-[(2-cyclopropylethyl)amino]-2-(pyrazolo[5,1-b][1,3]thiazol-7-yl)pyrimidine-4-carbonylpiperidin-4-yl)carbamate] | > 10000 | 450 | 5600
4 | COC(=O)NC1CCN(C(=O)c2cc(N[C@H](CO)C(C)(C)C)nc(-c3cnn4ccsc34)n2)CC1 [Example 63, Methyl (1-{[6-{[(2S)-1-hydroxy-3,3-dimethylbutan-2-yl]amino}-2-(pyrazolo[5,1-b][1,3]thiazol-7-yl)pyrimidin-4-yl]carbonyl}piperidin-4-yl)carbamate] | 7300 | 180 | –
5 | CCC(CC)Oc1cc(C(=O)N2CCC(NC(=O)C3CC3)CC2)nc(-c2cnn3ccsc23)n1 [Example 111, N-(1-{[6-(Pentan-3-yloxy)-2-(pyrazolo[5,1-b][1,3]thiazol-7-yl)pyrimidin-4-yl]carbonyl}piperidin-4-yl)cyclopropanecarboxamide] | 2400 | 120 | > 10000
6 | COCCOC(=O)NC1CCN(C(=O)c2cc(NC(C)(C)C)nc(-c3cnn4ccsc34)n2)CC1 [Example 101] | 1800 | 98 | 3100
7 | CC(C)(C)OC(=O)N1CCC(Nc2cc(C(=O)N3CCC(NC(=O)C4CC4)CC3)nc(-c3cnn4ccsc34)n2)CC1 [Example 171, Tert-butyl 4-[6-4-[(cyclopropanecarbonyl)amino]piperidine-1-carbonyl-2-(pyrazolo[5,1-b][1,3]thiazol-7-yl)pyrimidin-4-yl]aminopiperidine-1-carboxylate] | > 10000 | 850 | > 10000
8 | COC(=O)NC1CCN(C(=O)c2cc(NCC(F)(F)F)nc(-c3cnn4ccsc34)n2)CC1 [Example 158, Methyl (1-2-(pyrazolo[5,1-b][1,3]thiazol-7-yl)-6-[(2,2,2-trifluoroethyl)amino]pyrimidine-4-carbonylpiperidin-4-yl)carbamate] | > 10000 | 1300 | > 10000
9 | CC(C)OC(=O)NC1CCN(C(=O)c2cc(NC(C)(C)C)nc(-c3cnn4ccsc34)n2)CC1 [Example 60, Propan-2-yl (1-{[6-(tert-butylamino)-2-(pyrazolo[5,1-b][1,3]thiazol-7-yl)pyrimidin-4-yl]carbonyl}piperidin-4-yl)carbamate] | 5400 | 72 | 6100
10 | CC(C)OC(=O)NC1CCN(C(=O)c2cc(NC3(C)COC3)nc(-c3cnn4ccsc34)n2)CC1 [Example 139, Propan-2-yl [1-({6-[(3-methyloxetan-3-yl)amino]-2-(pyrazolo[5,1-b][1,3]thiazol-7-yl)pyrimidin-4-yl}carbonyl)piperidin-4-yl]carbamate] | 2900 | 43 | 2100
11 | O=C(NC1CCN(C(=O)c2cc(NC3CC4CCC3C4)nc(-c3cnn4ccsc34)n2)CC1)C1CC1 [Example 176, N-1-[6-[(1R)-bicyclo[2.2.1]heptan-2-yl]amino-2-(pyrazolo[5,1-b][1,3]thiazol-7-yl)pyrimidine-4-carbonyl]piperidin-4-ylcyclopropanecarboxamide] | 4400 | 78 | 4600
12 | O=C(NC1CCN(C(=O)c2cc(NC3CCOCC3)nc(-c3cnn4ccsc34)n2)CC1)C1CC1 [Example 172, N-(1-6-[(oxan-4-yl)amino]-2-(pyrazolo[5,1-b][1,3]thiazol-7-yl)pyrimidine-4-carbonylpiperidin-4-yl)cyclopropanecarboxamide] | > 10000 | 320 | > 10000
13 | CCC(=O)NC1CCN(C(=O)c2cc(NC3(C)CC3)nc(-c3cnn4ccsc34)n2)CC1 [Example 128, N-[1-({6-[(1-Methylcyclopropyl)amino]-2-(pyrazolo[5,1-b][1,3]thiazol-7-yl)pyrimidin-4-yl}carbonyl)piperidin-4-yl]propanamide] | 8500 | 760 | > 10000
14 | O=C(NC1CCN(C(=O)c2cc(OC3CCC3)nc(-c3cnn4ccsc34)n2)CC1)C1CC1 [Example 45, N-(1-{[6-(Cyclobutyloxy)-2-(pyrazolo[5,1-b][1,3]thiazol-7-yl)pyrimidin-4-yl]carbonyl}piperidin-4-yl)cyclopropanecarboxamide] | 5700 | 310 | > 10000
15 | C[C@H](Nc1cc(C(=O)N2CCC(NC(=O)C3CC3)CC2)nc(-c2cnn3ccsc23)n1)C(C)(C)C [Example 3, N-(1-{[6-{[(2S)-3,3-Dimethylbutan-2-yl]amino}-2-(pyrazolo[5,1-b][1,3]thiazol-7-yl)pyrimidin-4-yl]carbonyl}piperidin-4-yl)cyclopropanecarboxamide] | 1400 | 62 | 3200
16 | COC(=O)NC1CCN(C(=O)c2cc(OC3CCC3)nc(-c3cnn4ccsc34)n2)CC1 [Example 65, Methyl (1-{[6-(cyclobutyloxy)-2-(pyrazolo[5,1-b][1,3]thiazol-7-yl)pyrimidin-4-yl]carbonyl}piperidin-4-yl)carbamate] | 3100 | 130 | –
17 | C[C@H](Nc1cc(C(=O)N2CCC(NC(=O)C3CCCC3)CC2)nc(-c2cnn3ccsc23)n1)C1CC1 [Example 166, N-1-[6-[(1S)-1-cyclopropylethyl]amino-2-(pyrazolo[5,1-b][1,3]thiazol-7-yl)pyrimidine-4-carbonyl]piperidin-4-ylcyclopentanecarboxamide] | – | 280 | 1300
18 | COC(=O)NC1CCN(C(=O)c2cc(Oc3cccnc3)nc(-c3cnn4ccsc34)n2)CC1 [Example 156, Methyl (1-{[2-(pyrazolo[5,1-b][1,3]thiazol-7-yl)-6-(pyridin-3-yloxy)pyrimidin-4-yl]carbonyl}piperidin-4-yl)carbamate] | > 10000 | 820 | –
